Where two headings read alike, the source gives them in different places.
Legend:
[1] = biological target: recombinant SARS-CoV-2 Main protease (Mpro) (Severe acute respiratory syndrome coronavirus 2 (2019-nCoV) (SARS-CoV-2), UniProt P0DTD1); assay: Cov Mpro Biochemical IC50 Assay
[2] = system: SARS-CoV-2-NLuc; assay: microbe, parasite or virus in culture; assay type: cell-based, SARS Coronavirus 2
[3] = recombinant SARS-CoV-2 Mpro 7.5 nM, fluorogenic peptide substrate 40 μM, read-out: MPro IC50
[4] = Severe acute respiratory syndrome coronavirus, 48 h; read-out: MPro EC50
[5] = Severe acute respiratory syndrome coronavirus, 48 h, read-out: MPro EC50
[6] = recombinant SARS-CoV-2 Mpro, fluorogenic peptide substrate, read-out: MPro IC50

Compound	IC50 [1, 3] [nM]	EC50 [2, 5] [nM]	IC50 [1, 6] [nM]	further results
COc1cc(-c2cc3c(s2)c(=O)n(-c2cncc(CO)c2)c(=O)n3CCC#N)c(Cl)cc1F [Example 1100, 3-(6-(2-chloro-4-fluoro-5-methoxyphenyl)-3-(5-(hydroxymethyl)pyridin-3-yl)-2,4-dioxo-3,4-dihydrothieno[3,2-d]pyrimidin-1(2H)-yl)propanenitrile]	2.6			EC50 [2, 4]: 15 nM
COc1cc(-c2cc3c(s2)c(=O)n(-c2cncc4cnn(C)c24)c(=O)n3CC(C)(C)C#N)c(Cl)cc1F [Example 697]	9.01	9.62		
O=c1c2sc(-c3ccccc3Cl)cc2n(Cc2ccnnc2)c(=O)n1-c1cncc2ccccc12 [Example 155]		125	9.13	
O=c1[nH]c2sc(-c3ccccc3Cl)nc2c(=O)n1-c1cncc2ccccc12 [Example 78]		9530	404	
COc1cc(-c2cc3c(s2)c(=O)n(-c2cncc4cnsc24)c(=O)n3CCC#N)c(Cl)cc1F [Example 922]	2.8	> 1000		
COc1cccc(Cl)c1-c1cnc2c(=O)n(-c3cncc4ccccc34)c(=O)[nH]c2c1 [Example 48]			95.7	EC50 [2, 4]: 277 nM
Cn1nnc2cncc(-n3c(=O)c4sc(-c5cc(F)c(F)cc5Cl)cc4n(CCC#N)c3=O)c21 [Example 796]	40.5			EC50 [2, 4]: 124 nM
COc1cnc(Cl)c(-c2cc3c(s2)c(=O)n(-c2cncc4cnn(C)c24)c(=O)n3CCC#N)c1 (single isomer, unassigned) [Example 1090, 3-(6-(2-chloro-5-methoxypyridin-3-yl)-3-(1-methyl-1H-pyrazolo[4,3-c]pyridin-7-yl)-2,4-dioxo-3,4-dihydrothieno[3,2-d]pyrimidin-1(2H)-yl)propanenitrile]	1.5			EC50 ([2]; read-out: MPro EC50): 5.22 nM
COc1cc(-c2cc3c(s2)c(=O)n(-c2cncc(F)c2)c(=O)n3CCC#N)c(Cl)cc1F [Example 986]	2.37	4.39		
O=c1[nH]c2cc(-c3ccccc3Cl)c(OC3CC3)cc2c(=O)n1-c1cncc2ccccc12 [Example 80]		232	768	
COc1cc(-c2cc3[nH]c(=O)n(-c4cncc5ccccc45)c(=O)c3cc2OC)c(C#N)cc1F (single isomer, unassigned) [Example 571, 5-fluoro-2-[3-(4-isoquinolyl)-6-methoxy-2,4-dioxo-1H-quinazolin-7-yl]-4-methoxy-benzonitrile]	77.1			EC50 ([2]; read-out: MPro EC50): 171 nM
Cc1cccc(C#N)c1-c1cc2c(s1)c(=O)n(-c1cncc3cnn(C)c13)c(=O)n2CCC#N [Example 783]	199	455		
O=c1[nH]c2cc(-c3ccccc3Cl)sc2c(=O)n1-c1cncc2ccc(N3CCOCC3)cc12 [Example 385, 6-(2-chlorophenyl)-3-(6-morpholinoisoquinolin-4-yl)thieno[3,2-d]pyrimidine-2,4(1H,3H)-dione]		14	5.51	
Cc1cc(-c2cccc(Cl)c2-c2cc3[nH]c(=O)n(-c4cncc5ccccc45)c(=O)c3s2)cnn1 [Example 111, 6-(2-chloro-6-(6-methylpyridazin-4-yl)phenyl)-3-(isoquinolin-4-yl)thieno[3,2-d]pyrimidine-2,4(1H,3H)-dione]			6.88	EC50 [2, 4]: 78.9 nM
COc1cc(-c2cc3[nH]c(=O)n(-c4cncc5nc(C(F)(F)F)sc45)c(=O)c3s2)c(Cl)cc1F [Example 488]	1020	618		
Cc1nc2cc(-c3cccc(Cl)c3-c3ccc4c(=O)n(-c5cncc6ccccc56)c(=O)[nH]c4c3)ccc2o1 [Example 359]		91.4	107	
O=c1[nH]cc(-c2cc3[nH]c(=O)n(-c4cncc5ccccc45)c(=O)c3s2)c(=O)[nH]1 [Example 20]		> 50000	8620	
COc1ccc(C#N)c(-c2cc3[nH]c(=O)n(-c4cncc5cc(C(C)(C)O)sc45)c(=O)c3s2)c1 [Example 514]	15.8	568		
COc1cnc(Cl)c(-c2cc3[nH]c(=O)n(-c4cncc5cnn(C)c45)c(=O)c3s2)c1 [Example 668]	23	123		

Compound	IC50 [1, 3] [nM]	EC50 [2, 5] [nM]	IC50 [1, 6] [nM]	further results
Cn1ncc2cncc(-n3c(=O)c4sc(-c5ccccc5C#N)cc4n(CCC#N)c3=O)c21 (single isomer, unassigned) [Example 962, 2-(1-(2-cyanoethyl)-3-(1-methyl-1H-pyrazolo[4,3-c]pyridin-7-yl)-2,4-dioxo-1,2,3,4-tetrahydrothieno[3,2-d]pyrimidin-6-yl)benzonitrile]	> 1000			EC50 ([2]; read-out: MPro EC50): > 1000 nM
COc1cc(-c2cc3c(s2)c(=O)n(-c2cncc4cnn(C)c24)c(=O)n3CC#N)c(Cl)cc1F (single isomer, unassigned) [Example 1012, 2-[6-(2-chloro-4-fluoro-5-methoxy-phenyl)-3-(1-methylpyrazolo[4,3-c]pyridin-7-yl)-2,4-dioxo-thieno[3,2-d]pyrimidin-1-yl]acetonitrile]	1.99			EC50 ([2]; read-out: MPro EC50): 3.19 nM
COc1ccc(C#N)c(-c2ccc3c(=O)n(-c4cncc5ccccc45)c(=O)[nH]c3c2)c1 [Example 308, 2-[3-(4-isoquinolyl)-2,4-dioxo-1H-quinazolin-7-yl]-4-methoxy-benzonitrile]		31.2	16.2	
O=c1[nH]c2cc(-c3cccc4ccccc34)ccc2c(=O)n1-c1cncc2ccccc12 [Example 26]		47900	40100	
O=c1[nH]c2cc(-c3cccnc3)sc2c(=O)n1-c1cncc2ccccc12 [Example 5]		1790	342	
Cc1nc2cncc(-n3c(=O)c4sc(-c5ccc(F)cc5Cl)cc4n(CCC#N)c3=O)c2n1C (single isomer, unassigned) [Example 965, 3-(6-(2-chloro-4-fluorophenyl)-3-(1,2-dimethyl-1H-imidazo[4,5-c]pyridin-7-yl)-2,4-dioxo-3,4-dihydrothieno[3,2-d]pyrimidin-1(2H)-yl)propanenitrile]	20.1			EC50 ([2]; read-out: MPro EC50): 78.3 nM
COCc1ccccc1-c1cc2[nH]c(=O)n(-c3cncc4ccccc34)c(=O)c2s1 [Example 17]		160	35.1	
Cc1ccccc1-c1cc2[nH]c(=O)n(-c3cncc4ccccc34)c(=O)c2s1 [Example 7]		109	24.7	
CC(C)Cn1cc(-c2cccc(Cl)c2-c2ccc3c(=O)n(-c4cncc5ccccc45)c(=O)[nH]c3c2)c(C(F)(F)F)n1 [Example 201]		59	110	
Cc1nn(C)cc1-c1cc2[nH]c(=O)n(-c3cncc4ccccc34)c(=O)c2s1 [Example 363]		785	129	
Cc1c(-c2ccccc2Cl)sc2c1c(=O)n(-c1cncc3ccccc13)c(=O)n2CC1CCCC1 [Example 64]			28400	EC50 [2, 4]: 3140 nM
Cc1cncc(-n2c(=O)c3sc(-c4ccc(F)cc4C#N)cc3n(CCC#N)c2=O)c1 [Example 880]	10.6			EC50 [2, 4]: 42.3 nM
COc1cc(-c2cc3[nH]c(=O)n(-c4cncc5ccccc45)c(=O)c3cc2F)c(Cl)cc1F (single isomer, unassigned) [Example 1006, 7-(2-chloro-4-fluoro-5-methoxy-phenyl)-6-fluoro-3-(4-isoquinolyl)-1H-quinazoline-2,4-dione]				IC50 ([1]; MPro IC50, recombinant SARS-CoV-2 Mpro 7.5 nM, fluorogenic peptide substrate 40 μM): 23.8 nM; EC50 ([2]; read-out: MPro EC50): 9.33 nM
COc1cc(-c2cc3[nH]c(=O)n(-c4cncc5scc(C)c45)c(=O)c3s2)c(Cl)cc1F (single isomer, unassigned) [Example 1056, 6-(2-chloro-4-fluoro-5-methoxyphenyl)-3-(3-methylthieno[2,3-c]pyridin-4-yl)thieno[3,2-d]pyrimidine-2,4(1H,3H)-dione]	2.34			EC50 ([2]; read-out: MPro EC50): < 1.01 nM
COc1cc(-c2cc3c(s2)c(=O)n(-c2cncc4ccccc24)c(=O)n3CCC#N)c(Cl)cc1F (single isomer, unassigned) [Example 638, 3-[6-(2-chloro-4-fluoro-5-methoxy-phenyl)-3-(4-isoquinolyl)-2,4-dioxo-thieno[3,2-d]pyrimidin-1-yl]propanenitrile]	192			EC50 ([2]; read-out: MPro EC50): 60.6 nM
O=c1[nH]c2cc(-c3c(Cl)cccc3-c3ccnc(C(F)(F)F)c3)ccc2c(=O)n1-c1cncc2ccccc12 [Example 334]		81.9	78.6	
CO[C@H]1CCN(c2ccc3cncc(-n4c(=O)[nH]c5cc(-c6ccccc6Cl)sc5c4=O)c3c2)C1 [Example 398]	3.38	18.7		
COc1ccc(Cl)c(-c2cc3[nH]c(=O)n(-c4cncc5ncsc45)c(=O)c3s2)c1 [Example 485]	9.6	62.6		
O=c1[nH]c2cc(-c3ccccc3Cl)sc2c(=O)n1-c1cncc2ccc(N3CCn4c(nnc4C(F)(F)F)C3)cc12 [Example 337]		170	< 2.68	

From US20240116946A1 (Gilead Sciences, Inc., priority 2022, published 2024)
